Measured values reported in patent publication US12036241B2, “Compositions and methods for immune cell modulation in adoptive immunotherapies” (Fate Therapeutics, Inc., priority 2017, dated 2024).
Entries after “also recorded” stand apart in the source; their conditions may differ.

Assays:
CD8+ T cells = assay: Cytokine production (IFNγ, IL-2, TNFα) after PMA/ionomycin, intracellular staining; type: cell-based, human; details: PMA/ionomycin 4 h; for increase of IFNγ+ only subpopulation / increase of IL-2 only subpopulation: FIG. 3D
Procedure: The ability of T cells to respond to a variety of stimuli can be important to their function. The capacity of T cells to produce multiple cytokines in response to non-specific stimulation is a measure of their ‘multifunctionality’. To assess whether compounds affect this ‘multifunctional’ response, the ability of modulated T cells to produce interferon-γ (IFNγ), IL-2 and/or TNFα post-stimulation was determined. After CD8^+ T cell treatment with each of the selected compounds, cells were stimulated with a mixture of PMA/ionomycin for four hours. Following stimulation, cytokine production was measured using intracellular cytokine staining with antibodies recognizing these cytokines conjugated to different fluorophores. Fluorescence was measured using flow cytometry. Cell were defined as multifunctional if they produced two or more cytokines. The proportion of T cell subsets that produce specific single, double or triple cytokines was examined and compared to cells without modulation using a selected compound.
The ability of T cells to respond to a variety of stimuli is important for their function. The capacity of T cells to produce multiple cytokines in response to non-specific stimulation is a measure of their “multifunctionality”. To assess whether selected compounds affect this “multifunctional” response in view of their phenotype skewing effect on the treated cells, the ability of treated cells to produce interferon-γ (IFNγ), IL-2 and TNFα post-stimulation was determined. After treatment of CD8+ T cells with a compound from Table 1, cells were stimulated with a mixture of PMA/ionomycin for four hours. Following stimulation, cytokine production was measured by intracellular cytokine staining with fluorescence-emitting antibodies recognizing these cytokines conjugated to different fluorophores. Fluorescence was measured using flow cytometry. Cells were defined as multifunctional if they produced at least two of the three cytokines.

[1] = test system: T cells from healthy donors; assay: Phenotypic profiling of T cells: CCR7, CD62L, CD27 surface markers by flow cytometry; type: cell-based, human; details: FIG. 1A; for Tcm phenotype / effect on improving Tcm percentage: relative to vehicle
Excerpt: (§1) Fresh leukopaks (AllCells, Alameda, Calif.; Key Biologics, Memphis, Tenn.) were obtained from healthy donors, from which T cells were negatively selected using, for example, the EasySep Human T Cell Enrichment Kit (Stem Cell Technologies, Vancouver, Canada). The freshly isolated T cells were aliquoted and cryopreserved. On the day the assays were initiated, T cells were thawed and washed into X-Vivo 15 with supplements including IL-2 and pen/strep. Cells were dispensed into flat-bottom 384-well plates at 5×10^5 cells/ml with anti-CD3/Anti-CD28 beads. Individual compounds were added at a final concentration over the range of 10 μM to 10 nM to each well from column 3 to column 22 of each plate. Positive and negative controls were added to additional wells. Cells were incubated for about 6 days at 37 degrees with 5% CO2.
(§2) These studies were performed with T cells from healthy donors. Six days post-initiation of culture in the presence of anti-CD3/CD28 beads and compound addition, cells were harvested and stained with a fixable viability marker and fluorophore-conjugated antibodies: CD3, CD4, CD8, CD62L, CCR7, CD27, and Tim3 (BD Biosciences, San Jose, Calif.; and BioLegend, San Diego, Calif.). Fluorescent absolute counting beads (Spherotech, Lake Forest, IL) were added just prior to acquisition. Data acquisition was performed on a BD Fortessa™ X-20 (BD Biosciences) and data were analyzed using Treestar™ software (FlowJo, Ashland, Oreg.) and Spotfire (Tibco, Boston, Mass.). The expression of surface markers including CD62L, CCR7 and CD27 was used to identify naïve, stem cell memory, or central memory T cells. After the treatment with each of the compounds, the surface marker expression profile of the treated cells was evaluated along with characterization of cell proliferation and viability. Compounds were scored on expression of these individual Tcm markers as well as CD62L/CCR7 double positive cells. Gene expression scores were also obtained based on a panel of selected 12 genes (Table 2) that are maximally differentially expressed in CD8 Tcm cells relative to Tem.
The selected groups of compounds were assessed for their ability to skew T cell phenotype. […] Tcm is characterized herein by expression of both CCR7 and CD62L. The expression of either CD62L or CCR7 on T cells, as indicative of the desired T cell subsets, indicates a favorable functional characteristic for CAR-T cell therapy, and potentially other adoptive T cell therapies. The phenotypic studies use flow cytometry to measure the expression levels of these key surface proteins. Compounds were scored on expression of these individual Tcm markers as well as CD62L/CCR7 double positive cells (FIG. 1A). The scores in FIG. 1A were generated using the values obtained from four donors and the formula: Score=Normalized StDev over Vehicle×Significance (−log 10(p-value))+1 Scores for other graphs in this figure used the same formula.

[2] = test system: T cells from healthy donors; assay: T cell viability and expansion after compound treatment; type: cell-based, human; details: FIGS. 2A, 2B
Excerpt: as §1, §2
The phenotypic studies of the surface markers also included characterization of cell viability (FIG. 2A) and cell expansion (FIG. 2B). Scores for the graphs in FIGS. 2A-B were obtained using the formula: (Test value−minimum value)/(maximum value—minimum value)×10

[3] = test system: irradiated K562 cells expressing CD19 and mKate2; assay: Target cell killing by compound-treated CAR-T cells (IncuCyte); type: cell-based, human; details: earlier time points, 24 to 65 hours; FIG. 4A
Procedure: An in vitro serial killing/re-stimulation assay, where the T cells treated by each compound were evaluated for various functions, including expansion and ability to kill tumor cells expressing the target antigen in vitro over multiple rounds of exposure to and withdrawal from antigen, was used as a model system. Such assays were carried out on cells treated with or without compounds, to assess the impact of individual compounds on cell function after repeated encounter with antigen, and cell expansion or persistence in such contexts.
An in vitro serial killing/re-stimulation assay, where CAR-T cells are tested for the ability to “clear” tumor cells in vitro over multiple rounds, can be used as a model to assess CAR-T expansion in the presence of tumor cells that express the antigen recognized by the CAR.
CD8 T cells were transduced with CARs and the cells were then cryopreserved. After thawing, the CAR-T cells were co-cultured with irradiated K562 tumor cells that express transgenic mKate2, a far-red fluorescent protein, and CD19, the antigen recognized by the CAR. […]
From this, the Area Under the Curve (AUC) for CAR-T cells treated with each compound can be calculated. […] To determine the effect of compound treatment on the killing ability of CAR-T cells, the AUC relative to target cells alone was determined.

CAR-T cells = assay: Serial restimulation of CAR-T cells produced with vehicle, PI3K inhibitor or PDK1 inhibitor; type: cell-based, human; details: after antigen stimulation and withdrawal, and with coated beads; FIG. 10 legend
Procedure: At the end of the manufacturing process, the cells were frozen prior to subsequent functional analysis.
The ability of CAR-T cells produced in the presence of vehicle, PI3K inhibitor, or PDK1 inhibitor to expand through multiple rounds of antigen stimulation was measured in a serial restimulation assay, wherein cryopreserved CAR-T cells were thawed and co-cultured in the presence of antigen-bearing, irradiated target cells. Every 3 to 4 days the CAR-T and target cell ratios were readjusted to approximately 1:1. […] As an alternative to using antigen-bearing, irradiated target cells for CAR-T cell stimulation, cryopreserved CAR-T cells from three independent donors produced in the presence of vehicle, PI3Ki or PDKli were thawed in T cell growth media and subsequently assessed for expansion and survival, as measured by AUC (area under the curve) of the expansion over 14 days of stimulation with anti-CAR antibodies conjugated to beads.

Raji = assay: Survival in Raji/NSG tumor model, suboptimal CAR-T dose; type: in vivo, NSG mice; details: 2.5×10^5 CD19 CAR-T cells; FIG. 12B; listed as PI3K inhibitor
Procedure: (§3) Next, an in vivo assay was conducted to further characterize CAR-T cells produced in the presence of a PI3K inhibitor or a PDK1 inhibitor for tumor clearance. NSG mice were injected with a human leukemia line, Nalm-6. Four days later, mice were treated with a suboptimal dose (3×10^5) of freshly thawed CD19 CAR-T cells generated in the presence of vehicle (“DMSO” n=8), PI3K inhibitor (n=8), or PDK1 inhibitor (n=8). Some tumor bearing mice (n=2) also received expanded T cells that were not transduced with CAR (untransduced or “UNTD”). Negative control mice (n=2, “Unmanip”) received neither tumor nor CAR T cells. […] Seven days later, a suboptimal dose (2.5×10^5) of CD19 CAR-T cells produced in the presence of DMSO, PDK1 inhibitor, or PI3K inhibitor were transferred and the survival of the tumor bearing mice was monitored.

Nalm-6 = assay: Survival in Nalm6/NSG tumor model, suboptimal CAR-T dose; type: in vivo, NSG mice; details: 3×10^5 CD19 CAR-T cells; FIG. 12A; listed as PI3K inhibitor
Procedure: as §3

Compound: Cc1sc2c(c1C)C(c1ccc(Cl)cc1)=N[C@@H](CC(=O)Nc1ccc(O)cc1)c1nnc(C)n1-2 [Compound 1, OTX015]
- increase of total multifunctional subpopulation (at least 2 cytokines) (CD8+ T cells; CD8+ T cells, vs vehicle): ~16 fold
- increase of cells producing all three cytokines (CD8+ T cells; IFNγ, IL-2, TNFα): ~13 fold
- increase of IFNγ+ only subpopulation (CD8+ T cells): about 33 fold

Compound: Cc1ccc(-c2ncc(Cl)cc2-c2ccc(S(C)(=O)=O)cc2)cn1 [Compound 7, Etoricoxib]
- Tcm phenotype / effect on improving Tcm percentage [1]: minimal effect
- cell viability and/or expansion relative to vehicle treatment [2]: enhance cell viability and/or expansion

Compound: O=C1NCCN1CCN1CCC(c2cn(-c3ccc(F)cc3)c3ccc(Cl)cc23)CC1 [Compound 8, Sertindole]
- Tcm phenotype / effect on improving Tcm percentage [1]: minimal effect
- cell viability and/or expansion relative to vehicle treatment [2]: enhance cell viability and/or expansion

Compound: CC1(C)O[C@@H]2C[C@H]3[C@@H]4C[C@H](F)C5=CC(=O)C=C[C@]5(C)[C@H]4[C@@H](O)C[C@]3(C)[C@]2(C(=O)CO)O1 [Compound 10, Flunisolide]
- Tcm phenotype / effect on improving Tcm percentage [1]: minimal effect
- cell viability and/or expansion relative to vehicle treatment [2]: enhance cell viability and/or expansion

Compound: CC(=O)OCC(=O)[C@@]1(O)[C@H](C)C[C@H]2[C@@H]3CCC4=CC(=O)C=C[C@]4(C)[C@@]3(F)[C@@H](O)C[C@@]21C [Compound 11, Dexamethasone Acetate]
- Tcm phenotype / effect on improving Tcm percentage [1]: minimal effect
- cell viability and/or expansion relative to vehicle treatment [2]: enhance cell viability and/or expansion

Compound: CC(=O)OCC(=O)[C@@]12OC3(CCCC3)O[C@@H]1C[C@H]1[C@@H]3CCC4=CC(=O)C=C[C@]4(C)[C@@]3(F)[C@@H](O)C[C@@]12C [Compound 12, Amcinonide]
- Tcm phenotype / effect on improving Tcm percentage [1]: minimal effect
- cell viability and/or expansion relative to vehicle treatment [2]: enhance cell viability and/or expansion

Compound: C1=C/COCc2cc(ccc2OCCN2CCCC2)Nc2nccc(n2)-c2cccc(c2)COC/1 [Compound 17, Pacritinib]
- increase of IL-2 only subpopulation (CD8+ T cells): about 11 fold

Compound: C[C@@H]1CCN(C(=O)CC#N)C[C@@H]1N(C)c1ncnc2[nH]ccc12 [Compound 18, Tofacitinib]
- increase of IL-2 only subpopulation (CD8+ T cells): ~4 fold

Compound: Cc1ccc(NC(=O)c2cccc(C(C)(C)C#N)c2)cc1Nc1ccc2ncn(C)c(=O)c2c1 [Compound 23, AZ628]
- kinetics of target cell killing compared to vehicle [3]: slower than for vehicle
- increase of IFNγ+ only subpopulation (CD8+ T cells): ~116 fold
- increase of IL-2 only subpopulation (CD8+ T cells): ~18 fold

Compound: CC(C)(C)c1nc(-c2cccc(NS(=O)(=O)c3c(F)cccc3F)c2F)c(-c2ccnc(N)n2)s1 [Compound 24, Dabrafenib]
- increase of the percentage of CCR7, CD62L double positive cells (Tcm) relative to vehicle ([1]; T cells, about 6 days with anti-CD3/CD28 beads, vs DMSO): about 10 fold

Compound: Oc1cccc(-c2nc(N3CCOCC3)c3oc4ncccc4c3n2)c1 [PI103]
- CAR-T cell expansion (CAR-T cells): improves CAR-T cell expansion
- survival of tumor bearing mice compared to DMSO treated CAR-T cells (Raji): substantially improved; also recorded: improves survival
- survival of tumor bearing mice compared to DMSO generated CAR-T cells (Nalm-6): prolonged survival; also recorded: improves survival
